In assay [1] the test system is radiation-induced mucositis. The experiment in a line: Radiation-induced mucositis in the lip of irradiated mice, total mucositis score (erythema + edema, Parkins scoring). The arrangement: key to Total Mucositis Score After 11 days: combined erythema + edema score (Parkins), maximum 7. The class given is in vivo, C57BL/6 female mice. The conditions noted are these: for Score (total mucositis score): amifostine 50 mg/ml, 200 mg/Kg s.c. 30 minutes before 16.5 Gy irradiation, maximum score 7. An excerpt: One of the major limiting acute toxicities associated with radiotherapy is radiation-induced mucositis. The ability to reduce the duration and severity of acute mucosal reactions is of particular importance in the radiotherapy and/or chemotherapy of head and neck cancer. Therefore, the radioprotective effects of amifostine were examined in an experimental model of mucositis. In particular, the study compared the radioprotective effects of amifostine by subcutaneous (s.c.) and intraperitoneal (i.p.) administration.
(§1) C57BL/6 female mice of 8-10 weeks old were used and fed with semi liquid food. The mice were randomly divided into treatment groups of five mice each. The treatment groups were, for example,
(§2) Unanesthetized mice were maintained in supine position and irradiated exclusively on the tip of their mouth. […] Irradiation was performed with a RT 250 Philips apparatus delivering 1.98 Gy per min. (200 Kv, 20 mA, filter of 0.2 mm de Cu). During irradiation, a constant normobaric air renewal was maintained. The effects of amifostine were evaluated using a single dose of 16.5 Gy.
(§3) Amifostine was dissolved in appropriate diluent to achieve a final concentration of 50 mg/ml immediately before injections. Amifostine was dissolved in 0.075% sodium deoxycholate to achieve a final concentration of 50 mg/ml. Amifostine was dissolved in a mixture of 2% EDTA and 2% sorbitol to achieve a final concentration of 50 mg/ml. Amifostine was dissolved in 0.2% EDTA to achieve a final concentration of 50 mg/ml. Subcutaneous injections (200 mg/Kg) were conducted 30 minutes before irradiation. Where a control group was used, a first control group was injected with the saline solution and subsequently irradiated, and a second control group was injected with the saline solution, but was not irradiated.
(§4) The effects of irradiation on lip mucosa were evaluated using the scoring system described by Parkins et al. (1983, Radiother. Oncol. 1:159-165). Body weight of the treated mice were scored periodically after treatment. Reduction in body weight was used as an objective indication of the severity of mucositis induced by irradiation, presumably resulting from the inability of the animals to eat. In this model, the acute reactions peaked on day 10 to 11 after irradiation.
Other symptoms of mucositis such as mucosal erythema and edema were also recorded. These symptoms developed more slowly than weight loss following irradiation. Mucosal erythema and edema were scored separately, and could be analyzed as separate scores or as a combined score yielding a maximum score of 7. Mouse lip mucosal erythema was scored according to Table 1.
Mucosal edema (swelling) of the lips was scored according to table 2.
(§5) These examples describe pharmaceutical formulations of the invention comprising amifostine in combination with surfactants and/or hydrotropes and/or chelating agents. The pharmaceutical formulations were administered, and the effects of irradiation on lip mucosa evaluated using the methods described in the first Example above.

A short description of assay [2]: Body weight of irradiated mice as objective indicator of mucositis. The class given is in vivo, C57BL/6 female mice. As to conditions: for Weight: amifostine 50 mg/ml, 200 mg/Kg s.c. 30 minutes before 16.5 Gy irradiation. The procedure: as §1, §2, §3, §4, §5

Each structure is given as a SMILES string.

Two molecules from patent US6489312B1, “Pharmaceutical formulations comprising aminoalkyl phosphorothioates” (MedImmune Oncology, Inc., priority 1999, dated 2002) can be followed below.

As for `NCCCNCCSP(=O)(O)O` [Amifostine, S-2-(3-aminopropylamino)ethyl dihydrogen phosphorothioate], the “Score (total mucositis score)” value in assay [1] (Day 0) turned out to be 0.0; in assay [1] (Day 6), 0.5; in assay [1] (Day 10) it was 1.7; in assay [1] (Day 11), 1.8; in assay [1] (Day 12), 1.3; in assay [1] (Day 18), 0.4. The “Score (total mucositis score)” value in assay [1] (Day 28) is recorded as 0.0. Further, the Weight in assay [2] (Day 0) came to 16.4 g; in assay [2] (Day 6), 15.8 g; in assay [2] (Day 10), 17.4 g; in assay [2] (Day 11), 17.8 g; in assay [2] (Day 12), 17.6 g; in assay [2] (Day 18) it was 18.4 g. The Weight in assay [2] (Day 28) worked out at 19.5 g. Moreover, the “Effect on body weight reduction after irradiation (in words)” value in assay [2] (s.c. administration before irradiation, compared with other groups) was “Less severe reductions in body weight”.

With `NCCCNCCS` [WR-1065, S-2-(3-aminopropylamino)ethanethiol], in assay [1] (after 11 days, irradiated mice, methods of Example 1), the “Total Mucositis Score After 11 days” value came out at 5.1. Further, the “% Weight Change After 6 Days” value in assay [2] (after 6 days, irradiated mice, methods of Example 1) is given as −8.7%.
